Several values for one entry are separate records, joined by “and”; a condition that tells them apart may be missing. Identical values can stand only once. Like-named read-outs stand apart in the source and are kept apart here.
How the values were obtained:
[1] = tested on: glycerol; assay: Glycerol-Glo assay of glycerol (byproduct of fat breakdown) in stored human milk; assay type: biochemical
Description: Eight human milk samples were tested to determine if glycerol, a byproduct of fat breakdown, accumulated after storage. Human milk samples were collected from the same donor anywhere between 1 month and 7 months after birth, frozen, and then thawed for testing. The samples were frozen on the same day as collection. […] The samples were thawed, and the presence of glycerol was detected by a glycerol-dependent, light-producing reaction presented as a measure of bioluminescence using the Glycerol-Glo™ Assay (Promega; catalog #: J3150) according to the manufacturer's instructions. A buffer with either 0 μM glycerol or 100 μM glycerol, alongside organic whole milk (cow) was used as a control. Glycerol content (bioluminescence) was measured using a BioTek Synergy Neo2 Hybrid Multimode Reader (Agilent; catalog #: BTNE02).

[2] = tested on: lipase; assay: Lipase/lipolysis assay (EnzChek Lipase Substrate, quenched BODIPY-fatty acid conjugate) on stored human milk; conditions: for Lipolysis: 5 ounces unpasteurized human milk, frozen −20° C. 1 week
[3] = Total Antioxidant Capacity Assay Kit on stored human milk
Description: The compounds in Table 7 were added to fresh human milk and the samples were stored for 1 week at −20° C. […] Additionally, select compounds were tested for total Antioxidant capacity using the Total Antioxidant Capacity: Total Antioxidant Capacity Assay Kit (Abcam; catalog #: ab65329) in accordance with the manufacturer's instructions and presented as a relative ratio compared to fresh human milk. […] Lipase was considered inhibited with a RFU <400, glycerol was considered inhibited with an RLU <150,000, and total antioxidant capacity considered maintained with a ratio >0.75. Results presented in Table 7 represent a dose of 500 μg/mL for vitamin C, E and the carbonate/bicarbonates. All other compounds are at 20 mg/mL. Additionally, all compounds were tested for lipase and antioxidant capacity at multiple dilutions.

[4] = Table 7, 500 μg/mL, relative ratio compared to fresh human milk, maintained if >0.75

Compound	Lipase (RFU) [2]	also measured
Gum arabic	744.000 RFU	Glycerol (RLU) [1]: 329275 RLU; Total Antioxidant Capacity [3]: 0.64
tocopherol [Vitamin E]	–	Total Antioxidant Capacity [3, 4]: 2
Locust bean gum	1054.203 RFU	Glycerol (RLU) [1]: 435487 RLU; Total Antioxidant Capacity [3]: 0.55
Tween 80	–	Effect on glycerol production (in words) [1]: reduced lipase and glycerol production; Glycerol (RLU) [1]: 113807 RLU; Effect on lipase / lipolysis (in words) [2]: reduced lipase and glycerol production; Hit in lipase inhibition screen (in words) [2]: significantly inhibited lipase activity
Lambda carageenan	432.920 RFU	Glycerol (RLU) [1]: 140894 RLU
O=C(O)[C@H]1O[C@H](O[C@@H]2[C@H](O)[C@@H](O)[C@@H](O[C@@H]3[C@H](O)[C@@H](O)C(O)O[C@@H]3C(=O)O)O[C@@H]2C(=O)O)[C@H](O)[C@@H](O)[C@H]1O (some centres unmarked) [Trigalacturonic acid]	352.972 RFU	Glycerol (RLU) [1]: 61363 RLU
Guar gum	–	Glycerol (RLU) [1]: 744165 RLU; Total Antioxidant Capacity [3]: 0.59
O=C(O)[C@H]1O[C@H](O[C@@H]2[C@H](O)[C@@H](O)[C@@H](O)O[C@@H]2C(=O)O)[C@H](O)[C@@H](O)[C@H]1O [Digalacturonic acid]	264.075 RFU	Glycerol (RLU) [1]: 61741 RLU
Polygalacturonic acid	398.125 RFU	Glycerol (RLU) [1]: 120477 RLU
Poly-D-galacturonic acid methyl ester (apple)	611.342 RFU	Glycerol (RLU) [1]: 643757 RLU
O=C1O[C@H]([C@@H](O)CO)C(O)=C1O [Vitamin C, ascorbic acid]	–	Total Antioxidant Capacity [3, 4]: 2
Perfected guar gum	1061.697 RFU	Glycerol (RLU) [1]: 838585 RLU; Total Antioxidant Capacity [3]: 0.72
Triton X-100 [reference compound]	370.282 RFU	Glycerol (RLU) [1]: 145670 RLU
Pectin	–	Lipolysis ([2]; Subject 1): 209; Lipolysis ([2]; Subject 2): 525; Lipolysis ([2]; Subject 3): 280; Total Antioxidant Capacity ([3]; Subject 1, 5 ounces unpasteurized human milk, frozen −20° C. 1 week, measure of absorbance): 0.204; Total Antioxidant Capacity ([3]; Subject 2, 5 ounces unpasteurized human milk, frozen −20° C. 1 week, measure of absorbance): 0.264; Total Antioxidant Capacity ([3]; Subject 3, 5 ounces unpasteurized human milk, frozen −20° C. 1 week, measure of absorbance): 0.364
O.O=C[C@H](O)[C@@H](O)[C@@H](O)[C@H](O)C(=O)O [D-(+)-Galacturonic acid monohydrate]	324.895 RFU	Glycerol (RLU) [1]: 71322 RLU
Curdlan	876.416 RFU	–
COc1cc(/C=C/C(=O)OCC[N+](C)(C)C)cc(OC)c1O [Sinapine]	1084.597 RFU	–
O=C(/C=C/c1ccc(O)c(O)c1)O[C@H]1[C@H](O)C[C@](O)(C(=O)O)C[C@H]1O [Cryptochlorogenic acid]	1264.679 RFU	–
OC[C@H]1O[C@@](CO)(O[C@H]2O[C@H](CO)[C@@H](O)[C@H](O)[C@H]2O)[C@@H](O[C@H]2O[C@H](CO)[C@@H](O)[C@H](O)[C@H]2O)[C@@H]1O [D-(+)-Melezitose]	886.4563 RFU	–
(−)-Epigallocatechin	928.0708 RFU	–
COc1ccc(C(=O)/C=C/c2ccc(O)cc2)c(O)c1CC=C(C)C [Compound 4-Hydroxyderricin]	842.4877 RFU	–
C[C@H](CCC(=O)NCC(=O)O)[C@H]1CC[C@H]2[C@@H]3CC[C@@H]4C[C@H](O)CC[C@]4(C)[C@H]3CC[C@]12C [Glycolithocholic acid]	1103.978 RFU	–
O=C(CO)[C@@H](O[C@H]1O[C@H](CO)[C@@H](O)[C@H](O)[C@H]1O)[C@H](O)[C@H](O)CO [Turanose]	1221.239 RFU and 697.9672 RFU	–
CC(=O)N[C@@H]1C(O)O[C@H](CO)[C@@H](O)[C@@H]1O (stereo partly drawn) [Cyclic N-Acetyl-D-mannosamine]	868.6631 RFU	–

Compound	Lipase (RFU) [2]	also measured
C[S+](CC[C@H](N)C(=O)[O-])C[C@H]1O[C@@H](n2cnc3c(N)ncnc32)[C@H](O)[C@@H]1O.Cc1ccc(S(=O)(=O)O)cc1.O=S(=O)(O)O.O=S(=O)(O)O (some centres unmarked)	726.0141 RFU	–
CC(CC(=O)CC(C)(O)C1CC(=O)C2(C)C3=C(C(=O)CC12C)C1(C)CCC(=O)C(C)(C)C1CC3O)C(=O)O (centres unmarked) [Ganoderic acid N]	866.924 RFU	–
CC(C(=O)c1ccc(O)cc1O)c1ccc(O)cc1 (centres unmarked) [O-Desmethylangolensin]	864.3847 RFU	–
COc1c2ccoc2c(O)c2oc(=O)ccc12 [Compound 8-Hydroxybergapten]	800.3718 RFU	–
NC(=O)c1ccc[n+]([C@@H]2O[C@H](COP(=O)([O-])OP(=O)(O)OC[C@H]3O[C@@H](n4cnc5c(N)ncnc54)[C@H](OP(=O)(O)O)[C@@H]3O)[C@@H](O)[C@H]2O)c1 [NADP]	1113.421 RFU	–
COC(=O)[C@]1(C)CC[C@]2(C(=O)O[C@@H]3O[C@H](CO)[C@@H](O)[C@H](O)[C@H]3O)CC[C@]3(C)C(=CC[C@@H]4[C@@]5(C)C[C@H](O)[C@H](O[C@@H]6OC[C@@H](O[C@@H]7O[C@H](CO)[C@@H](O)[C@H](O)[C@H]7O)[C@H](O)[C@H]6O)[C@@](C)(CO)C5CC[C@]43C)[C@H]2C1 (some centres unmarked) [Esculentoside H]	1175.483 RFU	–
CC(=O)CCc1ccc2c(c1)OCO2 [Piperonyl acetone]	718.0889 RFU	–
Poly-D-galacturonic acid methyl ester (citrus)	320.660 RFU	Glycerol (RLU) [1]: 122743 RLU
C[C@H]1O[C@@H](O[C@H]2[C@@H](O)C[C@H](O[C@H]3[C@@H](O)C[C@H](O[C@H]4CC[C@@]5(C)[C@H](CC[C@@H]6[C@@H]5CC[C@]5(C)[C@@H](C7=CC(=O)OC7)CC[C@]65O)C4)O[C@@H]3C)O[C@@H]2C)C[C@H](O)[C@@H]1O [Digitoxin]	1074.946 RFU	–
COn1cc(CC#N)c2ccccc21 [Caulilexin C]	998.4752 RFU	–
C[n+]1cn([C@@H]2O[C@H](CO)[C@@H](O)[C@H]2O)c2nc(N)[nH]c(=O)c21 [Compound 7-Methylguanosine, 7-Methylguanosine]	974.6149 RFU	–
CCCCCCCCCCC/C=C\CCCCC(=O)O [Petroselinic acid]	886.6723 RFU	–
NCCS(=O)O [Hypotaurine]	1147.047 RFU and 798.4494 RFU	–
O=C(CO)[C@@H](O)[C@@H](O)[C@H](O)CO [D-Tagatose]	939.2844 RFU	–
C[C@H](O)[C@H](O)C1=Nc2c(nc(N)[nH]c2=O)NC1 [7,8-Dihydro-L-biopterin]	1090.909 RFU	–
OC[C@H]1O[C@@H](O[C@H]2[C@H](O)[C@@H](O)[C@H](O)O[C@@H]2CO)[C@H](O)[C@@H](O)[C@@H]1O [D-(+)-Cellobiose]	821.3157 RFU	–
CC(C)=CCC[C@H](C)[C@@H]1CC[C@]2(C)C3=C(CC[C@@]12C)[C@@]1(C)CC[C@H](O)C(C)(C)[C@@H]1CC3 [Tirucallol]	1060.924 RFU	–
O=C(O)[C@H]1O[C@@H](Oc2cc(O)c3c(=O)cc(-c4ccc(O)c(O)c4)oc3c2)[C@H](O)[C@@H](O)[C@@H]1O [Luteolin 7-O-glucuronide]	995.7867 RFU	–
OC[C@@H](O)[C@@H](O)CO [meso-Erythritol]	838.849 RFU	–
COc1c(O)cc2oc3cc(O)c(CC=C(C)C)c(O)c3c(=O)c2c1CC=C(C)C [alpha-Mangostin]	1061.941 RFU	–
CCCCCC/C=C/CCCCCCCCCC(=O)O [trans-Vaccenic acid]	932.0426 RFU	–
C[C@@H](CN)C(=O)O [(S)-b-aminoisobutyric acid]	859.5436 RFU	–
COc1cc(-c2cc(=O)c3c(O)c(OC)c(O)cc3o2)ccc1O [Jaceosidin]	614.7008 RFU	–
CCCCC[C@H](O)/C=C/[C@H]1[C@H](O)CC(=O)[C@@H]1CCCCCCC(=O)O [Prostaglandin E1]	787.5664 RFU	–

Source: US12507703B2, “Methods, devices and compositions for preserving human milk” (The Trustees of Princeton University, priority 2023, dated 2025)
